According to patent US10913727B2, “Modulators of the integrated stress pathway” (Calico Life Sciences LLC, priority 2016, dated 2021):
pEC50: −log10 of the molar value.

Tested on: HEK293T cells carrying the ATF4 luciferase reporter
Experiment: ATF4-Luc assay, in vitro model of Vanishing Cell White Matter Disease (VWMD)
Assay type: cell-based
Conditions: Homo sapiens, HEK-293T, 1 μg/mL tunicamycin, 7 hours, One Glo luminescence
Method in brief: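 Stable HEK293T line with human ATF4 5′-UTR–firefly luciferase reporter treated with 1 μg/mL tunicamycin plus 200 nM compound for 7 h. Luminescence read; EC50 derived.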

SMILES	pEC50
CCc1cnc(C(=O)NC23CC(NC(=O)COc4ccc(Cl)c(F)c4)(C2)C3)cn1 [Compound 708, N-{3-[2-(4-chloro-3-fluorophenoxy)acetamido]bicyclo[1.1.1]pentan-1-yl}-5-ethylpyrazine-2-carboxamide]	6.60 to 7.30
Cc1nn(C)c(C(=O)NC23CCC(NC(=O)COc4ccc(Cl)c(F)c4)(CC2)C(O)C3)c1F (stereo not drawn) [Compound 517, N-{4-[2-(4-chloro-3-fluorophenoxy)acetamido]-3-hydroxybicyclo[2.2.2]octan-1-yl}-4-fluoro-1,3-dimethyl-1H-pyrazole-5-carboxamide]	6.60 to 7.30
O=C(COc1ccc(Cl)c(F)c1)NC12CC(NC(=O)c3ccc(OC(F)(F)F)nc3)(C1)C2 [Compound 132, N-{3-[2-(4-chloro-3-fluorophenoxy)acetamido]bicyclo[1.1.1]pentan-1-yl}-6-(trifluoromethoxy)pyridine-3-carboxamide]	6.60 to 7.30
CC(=O)N1CCC(c2ncc(C(=O)NC34CC(NC(=O)COc5ccc(Cl)c(F)c5)(C3)C4)o2)CC1 [Compound 148, 2-(1-acetylpiperidin-4-yl)-N-{3-[2-(4-chloro-3-fluorophenoxy)acetamido]bicyclo[1.1.1]pentan-1-yl}-1,3-oxazole-5-carboxamide]	< 5.70
Cc1cc(C(=O)NC23CC(NC(=O)COc4ccc(Cl)c(F)c4)(C2)C3)sn1 [Compound 564, N-{3-[2-(4-chloro-3-fluorophenoxy)acetamido]bicyclo[1.1.1]pentan-1-yl}-3-methyl-1,2-thiazole-5-carboxamide]	6.60 to 7.30
O=C(COc1ccc(Cl)c(F)c1)NC12CC(NS(=O)(=O)c3ccc(Cl)cn3)(C1)C2 [Compound 661, 2-(4-chloro-3-fluorophenoxy)-N-{3-[(5-chloropyridine-2-sulfonyl)amino]bicyclo[1.1.1]pentan-1-yl}acetamide]	< 5.70
Cc1cc2c(NC34CC(NC(=O)COc5ccc(Cl)c(F)c5)(C3)C4)nccn2n1 [Compound 394, 2-(4-chloro-3-fluorophenoxy)-N-{3-[(2-methylpyrazolo[1,5-a]pyrazin-4-yl)amino]bicyclo[1.1.1]pentan-1-yl}acetamide]	> 7.30
Cc1cnc2cccc(C(=O)NC34CC(NC(=O)COc5ccc(Cl)c(F)c5)(C3)C4)c2n1 [Compound 843, N-{3-[2-(4-chloro-3-fluorophenoxy)acetamido]bicyclo[1.1.1]pentan-1-yl}-3-methylquinoxaline-5-carboxamide]	< 5.70
O=C(COc1ccc(Cl)c(F)c1)NC12CC(NC(=O)c3cc(NC4CC4)ccn3)(C1)C2 [Compound 390, N-{3-[2-(4-chloro-3-fluorophenoxy)acetamido]bicyclo[1.1.1]pentan-1-yl}-4-(cyclopropylamino)pyridine-2-carboxamide]	5.70 to 6.00
O=C(COc1ccc(Cl)c(F)c1)NC12CC(NC(=O)c3cnn(-c4ccccn4)c3)(C1)C2 [Compound 802, N-{3-[2-(4-chloro-3-fluorophenoxy)acetamido]bicyclo[1.1.1]pentan-1-yl}-1-(pyridin-2-yl)-1H-pyrazole-4-carboxamide]	< 5.70
Cc1nc(C(=O)NC23CC(NC(=O)COc4ccc(Cl)c(F)c4)(C2)C3)cs1 [Compound 539, N-{3-[2-(4-chloro-3-fluorophenoxy)acetamido]bicyclo[1.1.1]pentan-1-yl}-2-methyl-1,3-thiazole-4-carboxamide]	6.60 to 7.30
Cc1cnoc1C(=O)NC12CC(NC(=O)COc3ccc(Cl)c(F)c3)(C1)C2 [Compound 367, N-{3-[2-(4-chloro-3-fluorophenoxy)acetamido]bicyclo[1.1.1]pentan-1-yl}-4-methyl-1,2-oxazole-5-carboxamide]	< 5.70
Cc1nc2ccc(C(=O)NC34CC(NC(=O)COc5ccc(Cl)c(F)c5)(C3)C4)cc2nc1C [Compound 779, N-{3-[2-(4-chloro-3-fluorophenoxy)acetamido]bicyclo[1.1.1]pentan-1-yl}-2,3-dimethylquinoxaline-6-carboxamide]	< 5.70
CS(=O)(=O)c1cccc(C(=O)NC23CC(NC(=O)COc4ccc(Cl)c(F)c4)(C2)C3)c1 [Compound 813, N-{3-[2-(4-chloro-3-fluorophenoxy)acetamido]bicyclo[1.1.1]pentan-1-yl}-3-(methanesulfonyl)benzamide]	< 5.70
O=C(COc1ccc(Cl)c(F)c1)NC12CCC(NC(=O)c3ccns3)(CC1)C[C@@H]2O [Compound 683, N-{(3S)-4-[2-(4-chloro-3-fluorophenoxy)acetamido]-3-hydroxybicyclo[2.2.2]octan-1-yl}-1,2-thiazole-5-carboxamide]	> 7.30
CC(C)(C)c1cc(C(=O)NC23CCC(NC(=O)COc4ccc(Cl)c(F)c4)(CC2)C(O)C3)on1 (stereo not drawn) [Compound 353, 3-tert-butyl-N-{4-[2-(4-chloro-3-fluorophenoxy)acetamido]-3-hydroxybicyclo[2.2.2]octan-1-yl}-1,2-oxazole-5-carboxamide]	6.60 to 7.30
CC(C)Oc1ccc(C(=O)NC23CC(NC(=O)COc4ccc(Cl)cc4)(C2)C3)nc1 [Compound 185, N-{3-[2-(4-chlorophenoxy)acetamido]bicyclo[1.1.1]pentan-1-yl}-5-[(propan-2-yl)oxy]pyridine-2-carboxamide]	6.00 to 6.60
O=C(COc1ccc(Cl)c(F)c1)NC12CC(NC(=O)c3nnc4n3CCCC4)(C1)C2 [Compound 844, N-{3-[2-(4-chloro-3-fluorophenoxy)acetamido]bicyclo[1.1.1]pentan-1-yl}-5,6,7,8-tetrahydro[1,2,4]triazolo[4,3-a]pyridine-3-carboxamide]	< 5.70
Cc1nc(C(=O)NC23CCC(NC(=O)COc4ccc(Cl)c(Cl)c4)(CC2)[C@@H](O)C3)cs1 [Compound 701, N-{(3S)-4-[2-(3,4-dichlorophenoxy)acetamido]-3-hydroxybicyclo[2.2.2]octan-1-yl}-2-methyl-1,3-thiazole-4-carboxamide]	6.60 to 7.30
O=C(COc1ccc(Cl)c(F)c1)NC12CC(NC(=O)c3ccc(C4=CCOCC4)nc3)(C1)C2 [Compound 155, N-{3-[2-(4-chloro-3-fluorophenoxy)acetamido]bicyclo[1.1.1]pentan-1-yl}-6-(3,6-dihydro-2H-pyran-4-yl)pyridine-3-carboxamide]	5.70 to 6.00
O=C(COc1ccc(Cl)c(F)c1)NC12CC(NC(=O)c3cc(F)ccc3F)(C1)C2 [Compound 510, N-{3-[2-(4-chloro-3-fluorophenoxy)acetamido]bicyclo[1.1.1]pentan-1-yl}-2,5-difluorobenzamide]	6.00 to 6.60
Cc1nccn1-c1ccccc1C(=O)NC12CC(NC(=O)COc3ccc(Cl)c(F)c3)(C1)C2 [Compound 883, N-{3-[2-(4-chloro-3-fluorophenoxy)acetamido]bicyclo[1.1.1]pentan-1-yl}-2-(2-methyl-1H-imidazol-1-yl)benzamide]	< 5.70
COCc1nc(C(=O)NC23CCC(NC(=O)COc4ccc(Cl)c(F)c4)(CC2)C(O)C3)cs1 (stereo not drawn) [Compound 523, N-{4-[2-(4-chloro-3-fluorophenoxy)acetamido]-3-hydroxybicyclo[2.2.2]octan-1-yl}-2-(methoxymethyl)-1,3-thiazole-4-carboxamide]	6.60 to 7.30
O=C(COc1ccc(Cl)c(F)c1)NC12CC(NC(=O)c3cc(N4CC(F)(F)C4)ccn3)(C1)C2 [Compound 189, N-{3-[2-(4-chloro-3-fluorophenoxy)acetamido]bicyclo[1.1.1]pentan-1-yl}-4-(3,3-difluoroazetidin-1-yl)pyridine-2-carboxamide]	6.00 to 6.60
